Test results: patent US10570184B2, “GLP-1/glucagon receptor co-agonists for medical use” (Novo Nordisk A/S, priority 2014, dated 2020)
Starred links: 1 amine or outer side, 2 acyl side, 3 side chain; linkers in the order of their positions; H or OH if unused. Non-standard residues stand in square brackets, D forms with d. Residues, ends and D or L forms follow the SMILES beside them. Groups on a side chain read outwards from the residue. *: point of attachment. C18 diacid = O=C(O)CCCCCCCCCCCCCCCCC(=O)*; γGlu = O=C(O)[C@H](CCC(=O)[*:2])N[*:1]; Ac4c = NC1(C(=O)O)CCC1; AEEA = NCCOCCOCC(=O)O; Aib = CC(C)(N)C(=O)O

Tests used:
[1] = target: T1, human GLP-1 receptor (Homo sapiens, UniProt P43220); test: Assay (II)(a) GLP-1 receptor binding, 125I-GLP-1 displacement SPA on BHK membranes; settings: without presence of serum albumin; read-out: GLP-1R IC50 (nM) [Assay (II)(a)]
T1 construct: expressed in transfected cells; host or cells: membranes of BHK cells (parent BHKTS13), clone FCW467-12A
Procedure, shortened: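 Membranes from BHK cells (clone FCW467-12A) stably expressing human GLP-1R were incubated with serially diluted compounds (8×10EE-13 to 8×10EE-7 M before addition) and [125I]-GLP-1-(7-36)NH2 with WGA SPA beads, 2 h at 30° C, pH 7.4. IC50 taken from displacement by non-linear regression. Run at ≤0.001% or 2.0% final serum albumin.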

[2] = target: T1, human GLP-1 receptor; test: Assay (I)(a) GLP-1 receptor activation, CRE luciferase reporter gene assay in BHK cells; format: cell-based; settings: without presence of serum albumin; read-out: GLP-1R EC50 (pM) [Assay (I)(a)]
Procedure, shortened: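 Stable BHK clone expressing human GLP-1 receptor with CRE-driven firefly luciferase, 5×10EE3 cells/well in medium with 2% ovalbumin and 0.2% Pluronic F-68. Compounds at 1×10EE-13 to 1×10EE-6 M final, 3 h at 37° C.; luminescence read, EC50 (pM) from four-parameter fit.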

[3] = Assay (III) ThT fibrillation assay for physical stability; format: physicochemical; settings: 250 μM in 10 mM HEPES buffer, 37° C., shaking 960 rpm
Excerpt: The purpose of this assay is to assess the physical stability of the glucagon derivatives of the invention in aqueous solutions. Low physical stability of a peptide may lead to amyloid fibril formation, which is observed as well-ordered, thread-like macromolecular structures in the sample, which eventually may lead to gel formation. This has traditionally been measured by visual inspection of the sample. However, that kind of measurement is very subjective and depending on the observer. Therefore, the application of a small molecule indicator probe is much more advantageous. Thioflavin T (ThT) is such a probe and has a distinct fluorescence signature when binding to fibrils [Naiki et al. (1989) Anal. Biochem. 177, 244-249; LeVine (1999) Methods. Enzymol. 309, 274-284]. […] The constant t0 is the time needed to reach 50% of maximum fluorescence. The two important parameters describing fibril formation are the lag-time calculated by t0−2τ and the apparent rate constant kapp 1/τ. Samples were prepared freshly before each assay. Each sample composition is described in the legends. The pH of the sample was adjusted to the desired value using appropriate amounts of concentrated NaOH and HCl. Thioflavin T was added to the samples from a stock solution in H2O to a final concentration of 1 μM. Sample aliquots of 200 μl (250 μM of the glucagon derivative in 10 mM HEPES buffer, pH 7.5) were placed in a 96 well microtiter plate (Packard OptiPlate™-96, white polystyrene). Usually, four or eight replica of each sample (corresponding to one test condition) were placed in one column of wells. The plate was sealed with Scotch Pad (Qiagen). Incubation at given temperature, shaking and measurement of the ThT fluorescence emission were done in a Fluoroskan Ascent FL fluorescence platereader (Thermo Labsystems). The temperature was adjusted to 37° C. The plate was incubated with orbital shaking adjusted to 960 rpm with an amplitude of 1 mm. Fluorescence measurement was done using excitation through a 444 nm filter and measurement of emission through a 485 nm filter. Each run was initiated by incubating the plate at the assay temperature for 10 min. The plate was measured every 20 minutes for a desired period of time. Between each measurement, the plate was shaken and heated as described. After completion of the ThT assay the four or eight replica of each sample was pooled and centrifuged at 20000 rpm for 30 minutes at 18° C. The supernatant was filtered through a 0.22 μm filter and an aliquot was transferred to a HPLC vial. The concentration of peptide in the initial sample and in the filtered supernatant was determined by reverse phase HPLC using an appropriate standard as reference. The percentage fraction the concentration of the filtered sample constituted of the initial sample concentration was reported as the recovery. The measurement points were saved in Microsoft Excel format for further processing and curve drawing and fitting was performed using GraphPad Prism. The background emission from ThT in the absence of fibrils was negligible. The data points are typically a mean of four or eight samples and shown with standard deviation error bars. Only data obtained in the same experiment (i.e. samples on the same plate) are presented in the same graph ensuring a relative measure of fibrillation between experiments. The data set may be fitted to Eq. (1).

T1 sequence (P43220 24-463): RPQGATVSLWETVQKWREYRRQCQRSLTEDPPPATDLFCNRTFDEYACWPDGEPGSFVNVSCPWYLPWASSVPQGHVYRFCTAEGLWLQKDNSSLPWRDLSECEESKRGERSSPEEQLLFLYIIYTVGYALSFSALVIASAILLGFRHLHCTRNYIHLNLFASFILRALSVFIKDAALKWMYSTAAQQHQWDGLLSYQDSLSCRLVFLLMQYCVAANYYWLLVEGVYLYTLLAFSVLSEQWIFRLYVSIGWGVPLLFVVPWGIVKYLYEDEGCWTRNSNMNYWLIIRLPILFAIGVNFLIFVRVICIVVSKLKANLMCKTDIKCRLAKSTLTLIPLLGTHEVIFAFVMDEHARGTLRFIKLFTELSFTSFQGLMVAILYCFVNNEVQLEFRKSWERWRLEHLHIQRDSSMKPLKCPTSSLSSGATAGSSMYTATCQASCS

CC[C@H](C)[C@H](NC(=O)[C@H](CC(C)C)NC(=O)[C@H](Cc1c[nH]c2ccccc12)NC(=O)[C@H](CCC(N)=O)NC(=O)[C@@H](NC(=O)[C@H](Cc1ccccc1)NC(=O)[C@H](CC(=O)O)NC(=O)[C@H](CCCNC(=N)N)NC(=O)[C@H](C)NC(=O)[C@H](CCCNC(=N)N)NC(=O)[C@H](CCCNC(=N)N)NC(=O)[C@H](C)NC(=O)[C@H](CC(=O)O)NC(=O)[C@H](CC(C)C)NC(=O)[C@H](Cc1ccc(O)cc1)NC(=O)[C@H](CCCNC(=N)N)NC(=O)[C@H](CO)NC(=O)[C@H](CC(C)C)NC(=O)[C@H](CC(=O)O)NC(=O)[C@H](CO)NC(=O)[C@@H](NC(=O)[C@H](Cc1ccccc1)NC(=O)[C@@H](NC(=O)CNC(=O)[C@H](CCC(N)=O)NC(=O)C(C)(C)NC(=O)[C@@H](N)Cc1c[nH]cn1)[C@@H](C)O)[C@@H](C)O)C(C)C)C(=O)N[C@@H](CCCCNC(=O)CC[C@H](NC(=O)CC[C@H](NC(=O)CC[C@H](NC(=O)CCCCCCCCCCCCCCCCC(=O)O)C(=O)O)C(=O)O)C(=O)O)C(=O)N[C@H](C(N)=O)[C@@H](C)O [Chem. 14, N^ε28-[(4S)-4-carboxy-4-[[(4S)-4-carboxy-4-[[(4S)-4-carboxy-4-(17-carboxyheptadecanoylamino)butanoyl]amino]butanoyl]amino]butanoyl]-[Aib2,Leu10,Arg12,Ala16,Arg20,Ile27,Lys28]-Glucagon amide] (HELM PEPTIDE1{H.[Aib].Q.G.T.F.T.S.D.L.S.R.Y.L.D.A.R.R.A.R.D.F.V.Q.W.L.I.K.T.[am]}|PEPTIDE2{[O=C(O)CCCCCCCCCCCCCCCCC(=O)[*:2]].[gGlu].[gGlu].[gGlu]}$PEPTIDE1,PEPTIDE2,28:R3-4:R2$$$V2.0)
IC50 [1]: 0.1 nM | EC50 [2]: 2 pM

CC[C@H](C)[C@H](NC(=O)[C@H](CC(C)C)NC(=O)[C@H](Cc1c[nH]c2ccccc12)NC(=O)[C@H](CCC(N)=O)NC(=O)[C@@H](NC(=O)[C@H](Cc1ccccc1)NC(=O)[C@H](CCC(=O)O)NC(=O)[C@H](CCCNC(=N)N)NC(=O)[C@H](C)NC(=O)[C@H](CCCNC(=N)N)NC(=O)[C@H](CCCNC(=N)N)NC(=O)[C@H](CO)NC(=O)[C@H](CCC(=O)O)NC(=O)[C@H](CC(C)C)NC(=O)[C@H](Cc1ccc(O)cc1)NC(=O)[C@H](CCCCN)NC(=O)[C@H](CO)NC(=O)[C@@H](NC(=O)[C@H](CC(=O)O)NC(=O)[C@H](CO)NC(=O)[C@@H](NC(=O)[C@H](Cc1ccccc1)NC(=O)[C@@H](NC(=O)CNC(=O)[C@H](CCC(N)=O)NC(=O)C1(NC(=O)[C@@H](N)Cc2c[nH]cn2)CCC1)[C@@H](C)O)[C@@H](C)O)C(C)C)C(C)C)C(=O)N[C@@H](CCCCNC(=O)CC[C@H](NC(=O)CC[C@H](NC(=O)COCCOCCNC(=O)COCCOCCNC(=O)CC[C@H](NC(=O)CC[C@H](NC(=O)CCCCCCCCCCCCCCCCC(=O)O)C(=O)O)C(=O)O)C(=O)O)C(=O)O)C(=O)N[C@H](C(N)=O)[C@@H](C)O [Chem. 19, N^ε28-[(4S)-4-carboxy-4-[[(4S)-4-carboxy-4-[[2-[2-[2-[[2-[2-[2-[[(4S)-4-carboxy-4-[[(4S)-4-carboxy-4-(17-carboxyheptadecanoylamino)butanoyl]amino]butanoyl]amino]ethoxy]ethoxy]acetyl]amino]ethoxy]ethoxy]acetyl]amino]butanoyl]amino]butanoyl]-[Acb2,Val10,Glu15,Arg20,Glu21,Ile27,Lys28]-Glucagon amide] (H-H[Ac4c]QGTFTSDVSKYLESRRAREFVQWLIK([γGlu-γGlu-AEEA-AEEA-γGlu-γGlu-C18 diacid])T-NH2)
ThT Assay Lag time (h) [Assay (III), pH 7.5] [3]: 45.0 h

CC[C@H](C)[C@H](NC(=O)[C@H](CC(C)C)NC(=O)[C@H](Cc1c[nH]c2ccccc12)NC(=O)[C@H](CCC(N)=O)NC(=O)[C@@H](NC(=O)[C@H](Cc1ccccc1)NC(=O)[C@H](CC(=O)O)NC(=O)[C@H](CCCNC(=N)N)NC(=O)[C@H](C)NC(=O)[C@H](CCCNC(=N)N)NC(=O)[C@H](CCCNC(=N)N)NC(=O)[C@H](CC(C)C)NC(=O)[C@H](CC(=O)O)NC(=O)[C@H](CC(C)C)NC(=O)[C@H](Cc1ccc(O)cc1)NC(=O)[C@H](CCCCN)NC(=O)[C@H](CO)NC(=O)[C@H](CC(C)C)NC(=O)[C@H](CC(=O)O)NC(=O)[C@H](CO)NC(=O)[C@@H](NC(=O)[C@H](Cc1ccccc1)NC(=O)[C@@H](NC(=O)CNC(=O)[C@H](CCC(N)=O)NC(=O)C(C)(C)NC(=O)[C@@H](N)Cc1c[nH]cn1)[C@@H](C)O)[C@@H](C)O)C(C)C)C(=O)N[C@@H](CO)C(=O)N[C@@H](CCCCNC(=O)CC[C@H](NC(=O)CC[C@H](NC(=O)COCCOCCNC(=O)COCCOCCNC(=O)CC[C@H](NC(=O)CCCCCCCCCCCCCCCCC(=O)O)C(=O)O)C(=O)O)C(=O)O)C(N)=O [Chem. 29, N^ε29-[(4S)-4-carboxy-4-[[(4S)-4-carboxy-4-[[2-[2-[2-[[2-[2-[2-[[(4S)-4-carboxy-4-(17-carboxyheptadecanoylamino)butanoyl]amino]ethoxy]ethoxy]acetyl]amino]ethoxy]ethoxy]acetyl]amino]butanoyl]amino]butanoyl]-[Aib2,Leu10,Leu16,Arg20,Ile27,Ser28,Lys29]-Glucagon amide] (H-H[Aib]QGTFTSDLSKYLDLRRARDFVQWLISK([γGlu-γGlu-AEEA-AEEA-γGlu-C18 diacid])-NH2; N-terminus assumed)
ThT Assay Lag time (h) [Assay (III), pH 7.5] [3]: 45.0 h

CC[C@H](C)[C@H](NC(=O)[C@H](CC(C)C)NC(=O)[C@H](Cc1c[nH]c2ccccc12)NC(=O)[C@H](C)NC(=O)[C@@H](NC(=O)[C@H](Cc1ccccc1)NC(=O)[C@H](CC(=O)O)NC(=O)[C@H](CCCNC(=N)N)NC(=O)[C@H](C)NC(=O)[C@H](CCCNC(=N)N)NC(=O)[C@H](CCCNC(=N)N)NC(=O)[C@H](CC(C)C)NC(=O)[C@H](CC(=O)O)NC(=O)[C@H](CC(C)C)NC(=O)[C@H](Cc1ccc(O)cc1)NC(=O)[C@H](CCCCN)NC(=O)[C@H](CO)NC(=O)[C@H](CC(C)C)NC(=O)[C@H](CC(=O)O)NC(=O)[C@H](CO)NC(=O)[C@@H](NC(=O)[C@H](Cc1ccccc1)NC(=O)[C@@H](NC(=O)CNC(=O)[C@H](CCC(N)=O)NC(=O)C(C)(C)NC(=O)[C@@H](N)Cc1c[nH]cn1)[C@@H](C)O)[C@@H](C)O)C(C)C)C(=O)N[C@@H](CO)C(=O)N[C@@H](CCCCNC(=O)CC[C@H](NC(=O)CC[C@H](NC(=O)COCCOCCNC(=O)COCCOCCNC(=O)CC[C@H](NC(=O)CCCCCCCCCCCCCCCCC(=O)O)C(=O)O)C(=O)O)C(=O)O)C(N)=O [Chem. 31, N^ε29-[(4S)-4-carboxy-4-[[(4S)-4-carboxy-4-[[2-[2-[2-[[2-[2-[2-[[(4S)-4-carboxy-4-(17-carboxyheptadecanoylamino)butanoyl]amino]ethoxy]ethoxy]acetyl]amino]ethoxy]ethoxy]acetyl]amino]butanoyl]amino]butanoyl]-[Aib2,Leu10,Leu16,Arg20,Ala24,Ile27,Ser28,Lys29]-Glucagon amide] (H-H[Aib]QGTFTSDLSKYLDLRRARDFVAWLISK([γGlu-γGlu-AEEA-AEEA-γGlu-C18 diacid])-NH2; N-terminus assumed)
ThT Assay Lag time (h) [Assay (III), pH 7.5] [3]: 45.0 h
